Measured values reported in ChEMBL document CHEMBL3751689, “Synthesis and biological properties of prodrugs of (S)-3-(adenin-9-yl)-2-(phosphonomethoxy)propanoic acid” (Eur J Med Chem, 2016).
Calls of active or inactive are those of the source. The calls are words filed in the database; no cut-off is given here.

Experiments:
Bordetella pertussis = experiment: Inhibition of Bordetella pertussis CyaA in mouse J774A.1 cells assessed as cAMP formation at 10 uM by immunoassay relative to control; type: cell-based; settings: values are per cent of control
[1] = system: Human immunodeficiency virus 1; experiment: Antiviral activity against HIV1 infected in MT4 cells; type: functional, organism-based; settings: Human immunodeficiency virus 1, MT4
[2] = Cytotoxicity against human MT4 cells; type: cell-based
Human rhinovirus 1A = experiment: Antiviral activity against HRV1A infected in HeLa cells; type: functional, organism-based
[3] = Cytotoxicity against human HeLa cells; type: cell-based
Hepatitis C virus [4] = experiment: Antiviral activity against HCV genotype 1a replicon infected in human HuH7 cells after 3 days by renilla luciferase assay; type: functional, organism-based, Hepacivirus hominis; settings: subtype 1a; for EC50: Huh-7, 72 h; for Activity: Hepacivirus hominis, Huh-7
[5] = Cytotoxicity against human HuH7 infected with HCV genotype 1a cells after 3 days by calcein-AM dye based fluorescence analysis; type: cell-based, Huh-7; settings: HuH7 cells infected with HCV genotype 1a
Hepatitis C virus [6] = experiment: Antiviral activity against HCV genotype 1b replicon infected in HuH7 cells after 3 days by renilla luciferase assay; type: functional, organism-based, Hepacivirus hominis; settings: for EC50: Huh-7, 72 h; for Activity: Hepacivirus hominis, Huh-7
[7] = Cytotoxicity against human HuH7 infected with HCV genotype 1b cells after 3 days by calcein-AM dye based fluorescence analysis; type: cell-based, Huh-7; settings: HuH7 cells infected with HCV genotype 1b
Hepatitis C virus [8] = experiment: Antiviral activity against HCV genotype 2a replicon infected in HuH7 cells after 3 days by renilla luciferase assay; type: functional, organism-based, Hepacivirus hominis; settings: for EC50: Huh-7, 72 h; for Activity: Hepacivirus hominis, Huh-7
[9] = Cytotoxicity against human HuH7 infected with HCV genotype 2a cells after 3 days by calcein-AM dye based fluorescence analysis; type: cell-based, Huh-7; settings: HuH7 cells infected with HCV genotype 2a
[10] = Selectivity index, ratio of CC50 for human HuH7 cells to EC50 for HCV genotype 1a; design: species or system Huh-7
[11] = Selectivity index, ratio of CC50 for human HuH7 cells to EC50 for HCV genotype 1b; design: species or system Huh-7
[12] = Selectivity index, ratio of CC50 for human HuH7 cells to EC50 for HCV genotype 2a; design: species or system Huh-7

| SMILES | residual activity (Bordetella pertussis) | EC50 [1] | CC50 [2] | EC50 (Human rhinovirus 1A) | CC50 [3] | EC50 (Hepatitis C virus [4]) | CC50 at 72 h [5] | EC50 (Hepatitis C virus [6]) | CC50 at 72 h [7] | EC50 (Hepatitis C virus [8]) | CC50 at 72 h [9] | Activity (Hepatitis C virus [4]) | Activity (Hepatitis C virus [6]) | Activity (Hepatitis C virus [8]) | Ratio CC50/EC50 [10] | Ratio CC50/EC50 [11] | Ratio CC50/EC50 [12] |
| --- | --- | --- | --- | --- | --- | --- | --- | --- | --- | --- | --- | --- | --- | --- | --- | --- | --- |
| CCOC(=O)[C@H](C)NP(=O)(CO[C@@H](Cn1cnc2c(N)ncnc21)C(=O)OC)N[C@@H](C)C(=O)OCC | 139% | > 53.2 µM | 40.5 µM | > 50 µM | > 50 µM | > 44.4 µM | > 44.4 µM | > 44.4 µM | > 44.4 µM | 39.2 µM | > 44.4 µM | – | – | – | – | – | – |
| Nc1ncnc2c1ncn2C[C@H](OCP(=O)(O)O)C(=O)O | – | > 53.2 µM | > 53.2 µM | > 50 µM | > 50 µM | > 44.4 µM | > 44.4 µM | > 44.4 µM | > 44.4 µM | > 44.4 µM | > 44.4 µM | – | – | – | – | – | – |
| CCCCCCCCCCCCCCCCOCCCOP(=O)(O)CO[C@@H](Cn1cnc2c(N)ncnc21)C(=O)OC | 140% | > 53.2 µM | 3.7 µM | > 50 µM | > 50 µM | 20.6 µM | > 44.4 µM | 30.9 µM | > 44.4 µM | 9.6 µM | > 44.4 µM | – | – | – | – | – | – |
| CCOC(=O)[C@H](C)NC(=O)[C@H](Cn1cnc2c(N)ncnc21)OCP(=O)(N[C@@H](C)C(=O)OCC)N[C@@H](C)C(=O)OCC | – | > 53.2 µM | > 53.2 µM | > 50 µM | > 50 µM | > 44.4 µM | > 44.4 µM | > 44.4 µM | > 44.4 µM | > 44.4 µM | > 44.4 µM | – | – | – | – | – | – |
| NC(=O)[C@H](Cn1cnc2c(N)ncnc21)OCP(=O)(O)O | 66% | – | – | – | – | – | – | – | – | – | – | inactive | inactive | inactive | – | – | – |
| CCOC(=O)[C@H](Cc1ccccc1)NP(=O)(CO[C@@H](Cn1cnc2c(N)ncnc21)C(=O)OC)N[C@@H](Cc1ccccc1)C(=O)OCC | 112% | > 53.2 µM | 0.7 µM | > 50 µM | > 50 µM | 0.6 µM | 18.3 µM | 1.1 µM | 30.4 µM | 0.6 µM | 12.6 µM | – | – | – | 30 | 30 | 30 |
| CCOC(=O)[C@H](Cc1ccccc1)NP(=O)(CO[C@@H](Cn1cnc2c(N)ncnc21)C(=O)OC)Oc1ccccc1 (some centres not stated) | 68% | > 53.2 µM | 1.4 µM | > 50 µM | > 50 µM | 0.8 µM | 42.6 µM | 1.5 µM | > 44.4 µM | 0.6 µM | 25.3 µM | – | – | – | 30 | 30 | 30 |
| Nc1ncnc2c1ncn2C[C@H](OCP(=O)(O)O)C(=O)NC1CC1 | 135% | – | – | – | – | – | – | – | – | – | – | inactive | inactive | inactive | – | – | – |
| COC(=O)[C@H](Cn1cnc2c(N)ncnc21)OCP(=O)(O)O | 90% | – | – | – | – | – | – | – | – | – | – | inactive | inactive | inactive | – | – | – |
